Square brackets hold non-standard residues; d marks the D form. Peptide text beside a SMILES is read from it. d1Nal = N[C@H](Cc1cccc2ccccc12)C(=O)O; dNle = CCCC[C@@H](N)C(=O)O

The subject of one data set is human red blood cells. Nature of the data set: Hemolytic activity. It counts as cell-based. The settings on record: red cells of human, 1 h, 150. How it is done: The percentage of hemolysis at 150 μM was determined for all compounds as previously described. Briefly, two-fold serial dilutions (2.35 to 150 μM) of compounds in PBS were mixed with a 0.5% v/v suspension of fresh human red blood cells (RBC) in the same buffer. After 1 h incubation at 37 °C, plates were centrifuged and aliquots of the supernatants were transferred to clear ELISA plates. Absorbance at 414 nm was determined and normalised with respect to a negative (PBS, 0%) and positive (melittin, 100%) control.

Data set [1] is described as follows: Peptide self-assembly nanostructure in solution by SAXS. For cross section of the nanotubes: values in Å. In kind it is physicochemical. The settings on record: for nanostructure in solution (self-assembly, SAXS model): lab SAXS, 50 mM Tris buffer pH 7.4, 2.5–10 mg/mL, ambient temperature. How it is done:
SAXS experiments of D2D and the alanine-scan (compounds 1–8) were performed using a Bruker NANOSTAR equipped with a microfocus X-ray source (IμS Cu, InCoatec, Germany) and a VÅNTEC-2000 detector. Raw scattering data was calibrated to absolute intensity scale using water as a primary standard and radially averaged in order to obtain the 1D scattered intensity profile as a function of the scattering vector q (q = 4 π sin (θ/2)/λ), where θ is the scattering angle and λ is the X-ray wavelength of 1.54 Å. The samples were dissolved in 50 mM Tris buffer, pH 7.4 (10 mg/mL, 5 mg/mL and 2.5 mg/mL) and injected manually into a temperature-controlled quartz cell located in a vacuum chamber and measured for 180 min.
The scattering of the peptide D2D was analysed using a random polymer-like chain model:(1) Ichain(q)=ϕ·Vp·Δρ^2·Pchain(q) where ϕ is the volume fraction of the peptide, Vp is the volume of the polymer, Δρ is the excess scattering length density and Pchain(q) is the form factor of the free peptide chains given by the Debye expression for Gaussian chains:(2) gPchain(q)=2·exp[−(qRg)^2]−1+(qRg)^2/(qRg)^4 where Rg is the radius gyration of the peptide chains.
The scattering for compounds 2 and 7 was analysed using a rectangular sheet like model:(3) Isheet(q)=ϕ·Vp·Δρ^2·Np·Psheet(q)
Under the assumption that the length of the peptide sheets are much greater than the lateral dimension, i.e., c >> a, b, the form factor Psheet(q) is given by (4) Psheet(q)=Fc(q)1/2π∫02πAsheet(q, α)^2dα where the amplitude is given by (5) Asheet(q,α)=sin(qb cos(α)/2)/qb cos(α)/2· sin(qa sin(α)/2) /qa sin(α)/2) and (6) Fc(q)=(2 Si(qc)/(qc)−4 sin^2(qc/2)/(qc)^2 where Si(x)=∫0xt^−1sint dt .
The expression for the absolute scattering intensity, from this structure can be written as:(7) Inanotube(q)=ϕ·P·Vtot·Δρ^2·P(q)L·A(q)cs2·DW(q) where ϕ is the volume fraction of the peptide, P is the aggregation number given by P π(Ro2−Ri2)L/Vp where Vp is the volume of a peptide chain, Ro is the outer radius and Ri is the inner radius of the tubes, and L is the length. A(q)cs2 is given by:(8) A(q)cs2=Ro2A(q,Rc)−Rin2A(q,Ri)/(Ro2−Ri2) where A(q,x)=2J1(q·x)/(q·x) and J1(x) is the first order Bessel function.
The longitudinal form factor P(q)L is given by:(9) P(q)L=2 Si(QL)/QL −4 sin(sin^2(QL/2)/(QL)^2 where L is the length of the nanotubes and Si(x) is the Sine-function.
In addition, we introduced a slight distribution in the inner radius for possible shape fluctuations, and a Debye Waller factor, DW(q) = exp(−q^2 σ^2), describing possible surface roughness of the inner and outer wall.

Turning to `CCCC[C@@H](NC(=O)[C@@H](CCCCN)NC(=O)[C@@H](Cc1cccc2ccccc12)NC(=O)[C@@H](CCCCN)NC(=O)[C@@H](Cc1ccccc1)NC(=O)[C@@H](Cc1cccc2ccccc12)NC(=O)[C@@H](C)NC(=O)[C@H](N)CCCCN)C(N)=O` [Compound 2, ka(1-nal)fk(1-nal)k(nle)-NH2] (H-[dK][dA][d1Nal][dF][dK][d1Nal][dK][dNle]-NH2), the “%H (% Hemolysis at 150 µM)” value with human red blood cells amounted to 59%. In addition, the “cross section of the nanotubes” value in data set [1] (SAXS nanotube model fit, 50 mM Tris pH 7.4) amounted to 14 Å. Moreover, in data set [1], the “nanostructure in solution (self-assembly, SAXS model)” value (from here on “nanostructure in solution”) is reported as “larger filament like structures”.

In the case of `CCCC[C@@H](NC(=O)[C@@H](CCCCN)NC(=O)[C@@H](Cc1cccc2ccccc12)NC(=O)[C@@H](CCCCN)NC(=O)[C@@H](Cc1ccccc1)NC(=O)[C@@H](Cc1cccc2ccccc12)NC(=O)[C@@H](CCCCN)NC(=O)[C@@H](C)N)C(N)=O` [Compound 1, ak(1-nal)fk(1-nal)k(nle)-NH2] (H-[dA][dK][d1Nal][dF][dK][d1Nal][dK][dNle]-NH2), the “%H (% Hemolysis at 150 µM)” value in the data set with human red blood cells came out at 41%. Besides, the “nanostructure in solution” value in data set [1] is “random polymer-like chains”. On the same counts, the results for `CCCC[C@@H](NC(=O)[C@@H](CCCCN)NC(=O)[C@@H](Cc1cccc2ccccc12)NC(=O)[C@@H](CCCCN)NC(=O)[C@@H](Cc1ccccc1)NC(=O)[C@@H](C)NC(=O)[C@@H](CCCCN)NC(=O)[C@H](N)CCCCN)C(N)=O` [Compound 3, kkafk(1-nal)k(nle)-NH2] (HELM PEPTIDE1{[dK].[dK].[dA].[dF].[dK].[O=C([C@@H](Cc1cccc2ccccc12)N[*:1])[*:2]].[dK].[CCCC[C@@H](N[*:1])C(=O)[*:2]].[am]}$$$$V2.0) are 2% and “random polymer-like chains”. On the same counts, the results for `CCCC[C@@H](NC(=O)[C@@H](CCCCN)NC(=O)[C@@H](C)NC(=O)[C@@H](CCCCN)NC(=O)[C@@H](Cc1ccccc1)NC(=O)[C@@H](Cc1cccc2ccccc12)NC(=O)[C@@H](CCCCN)NC(=O)[C@H](N)CCCCN)C(N)=O` [Compound 6, kk(1-nal)fkak(nle)-NH2] (HELM PEPTIDE1{[dK].[dK].[O=C([C@@H](Cc1cccc2ccccc12)N[*:1])[*:2]].[dF].[dK].[dA].[dK].[CCCC[C@@H](N[*:1])C(=O)[*:2]].[am]}$$$$V2.0; N-terminus assumed) are 10% and “random polymer-like chains”. On the same counts, the results for `CCCC[C@@H](NC(=O)[C@@H](CCCCN)NC(=O)[C@@H](Cc1cccc2ccccc12)NC(=O)[C@@H](CCCCN)NC(=O)[C@@H](C)NC(=O)[C@@H](Cc1cccc2ccccc12)NC(=O)[C@@H](CCCCN)NC(=O)[C@H](N)CCCCN)C(N)=O` [Compound 4, kk(1-nal)ak(1-nal)k(nle)-NH2] (H-[dK][dK][d1Nal][dA][dK][d1Nal][dK][dNle]-NH2; N-terminus assumed) are 22% and “random polymer-like chains”. For the molecule `C[C@@H](NC(=O)[C@@H](CCCCN)NC(=O)[C@@H](Cc1cccc2ccccc12)NC(=O)[C@@H](CCCCN)NC(=O)[C@@H](Cc1ccccc1)NC(=O)[C@@H](Cc1cccc2ccccc12)NC(=O)[C@@H](CCCCN)NC(=O)[C@H](N)CCCCN)C(N)=O` [Compound 8, kk(1-nal)fk(1-nal)ka-NH2] (HELM PEPTIDE1{[dK].[dK].[O=C([C@@H](Cc1cccc2ccccc12)N[*:1])[*:2]].[dF].[dK].[O=C([C@@H](Cc1cccc2ccccc12)N[*:1])[*:2]].[dK].[dA].[am]}$$$$V2.0; N-terminus assumed), the “%H (% Hemolysis at 150 µM)” value with human red blood cells turned out to be 5%. Also, the “nanostructure in solution” value in data set [1] is on record as “random polymer-like chains”. As for `CCCC[C@@H](NC(=O)[C@@H](CCCCN)NC(=O)[C@@H](Cc1cccc2ccccc12)NC(=O)[C@@H](CCCC)NC(=O)[C@@H](Cc1ccccc1)NC(=O)[C@@H](Cc1cccc2ccccc12)NC(=O)[C@@H](CCCCN)NC(=O)[C@H](N)CCCCN)C(N)=O` [Compound 11, kk(1-nal)f(nle)(1-nal)k(nle)-NH2] (H-[dK][dK][d1Nal][dF][dNle][d1Nal][dK][dNle]-NH2; N-terminus assumed), the “%H (% Hemolysis at 150 µM)” value with human red blood cells turned out to be 33%. With `NCCCC[C@@H](N)C(=O)N[C@H](CCCCN)C(=O)N[C@H](Cc1cccc2ccccc12)C(=O)N[C@H](Cc1ccccc1)C(=O)N[C@H](CCCCN)C(N)=O` [Compound 32, kk(1-nal)fk-NH2] (HELM PEPTIDE1{[dK].[dK].[O=C([C@@H](Cc1cccc2ccccc12)N[*:1])[*:2]].[dF].[dK].[am]}$$$$V2.0; N-terminus assumed), in the data set on human red blood cells, the “%H (% Hemolysis at 150 µM)” value is recorded as 5%. On the same count and under the same terms, the result for `CCCC[C@@H](NC(=O)[C@@H](CCCCN)NC(=O)[C@@H](Cc1cccc2ccccc12)NC(=O)[C@@H](CO)NC(=O)[C@@H](Cc1ccccc1)NC(=O)[C@@H](Cc1cccc2ccccc12)NC(=O)[C@@H](CCCCN)NC(=O)[C@H](N)CCCCN)C(N)=O` [Compound 13, kk(1-nal)fs(1-nal)k(nle)-NH2] (H-[dK][dK][d1Nal][dF][dS][d1Nal][dK][dNle]-NH2; N-terminus assumed) reads 29%. As to `CCCC[C@@H](NC(=O)[C@@H](C)NC(=O)[C@@H](Cc1cccc2ccccc12)NC(=O)[C@@H](CCCCN)NC(=O)[C@@H](Cc1ccccc1)NC(=O)[C@@H](Cc1cccc2ccccc12)NC(=O)[C@@H](CCCCN)NC(=O)[C@H](N)CCCCN)C(N)=O` [Compound 7, kk(1-nal)fk(1-nal)a(nle)-NH2] (H-[dK][dK][d1Nal][dF][dK][d1Nal][dA][dNle]-NH2), in the data set on human red blood cells, the “%H (% Hemolysis at 150 µM)” value was 67%. For the same molecule, in data set [1], the “nanostructure in solution” value is “larger filament like structures”. As to `CCCC[C@@H](NC(=O)[C@@H](CCCCN)NC(=O)[C@@H](Cc1cccc2ccccc12)NC(=O)[C@@H](Cc1ccccc1)NC(=O)[C@@H](Cc1ccccc1)NC(=O)[C@@H](Cc1cccc2ccccc12)NC(=O)[C@@H](CCCCN)NC(=O)[C@H](N)CCCCN)C(N)=O` [Compound 12, kk(1-nal)ff(1-nal)k(nle)-NH2] (H-[dK][dK][d1Nal][dF][dF][d1Nal][dK][dNle]-NH2; N-terminus assumed), the “%H (% Hemolysis at 150 µM)” value in the data set with human red blood cells amounted to 74%. As for `CCCC[C@@H](NC(=O)[C@H](NC(=O)[C@@H](Cc1cccc2ccccc12)NC(=O)[C@@H](CCCCN)NC(=O)[C@@H](Cc1ccccc1)NC(=O)[C@@H](Cc1cccc2ccccc12)NC(=O)[C@@H](CCCCN)NC(=O)[C@H](N)CCCCN)C(C)C)C(N)=O` [Compound 24, kk(1-nal)fk(1-nal)v(nle)-NH2] (H-[dK][dK][d1Nal][dF][dK][d1Nal][dV][dNle]-NH2; N-terminus assumed), the “%H (% Hemolysis at 150 µM)” value with human red blood cells stood at 50%. On the same count and under the same terms, the figure for `NCCCC[C@@H](N)C(=O)N[C@H](CCCCN)C(=O)N[C@H](Cc1cccc2ccccc12)C(=O)N[C@H](Cc1ccccc1)C(=O)N[C@H](CCCCN)C(=O)N[C@H](Cc1cccc2ccccc12)C(=O)N[C@H](CCCCN)C(N)=O` [Compound 30, kk(1-nal)fk(1-nal)k-NH2] (HELM PEPTIDE1{[dK].[dK].[O=C([C@@H](Cc1cccc2ccccc12)N[*:1])[*:2]].[dF].[dK].[O=C([C@@H](Cc1cccc2ccccc12)N[*:1])[*:2]].[dK].[am]}$$$$V2.0; N-terminus assumed) is 11%.

The values are drawn from article PMC6943423, “Structure-Activity Study of an All-D Antimicrobial Octapeptide D2D” (Molecules, 2019).
